# Results: patent publication US20160113911A1, “METHODS AND COMPOSITIONS FOR THE TREATMENT OF CANCER” (THE GENERAL HOSPITAL CORPORATION, priority 2013, published 2016)
# Experiments:
# [1] = test system: 1q12h copy gain in RPE cells; test: FISH for site-specific copy gain; assay type: cell-based, human; details: for hypoxia-dependent copy gain of 1q12h / hypoxia-induced 1q12h copy number gains / KDM4A-dependent 1q12h copy gain upon co-expression: RPE cells; for hypoxia-dependent copy gain of 1q12h: 1% O2 24 hours, JIB-04 62.5 nM or 2 mM succinate pre-treatment, or overexpression; for hypoxia-induced 1q12h copy number gains: 4% oxygen, transfection or 2 mM succinate for 24 hours; for KDM4A-dependent 1q12h copy gain upon co-expression: transient transfection 24 hours
# Description: FISH was performed as described in (Manning et al., 2010). Probes for 1q12h, 1q telomere, and chromosome 2, 6, 8, and X alpha satellite were purchased from Rainbow Scientific. Probes for 1q12 (RP11-80L2), Xq13.2 (RP11-451A22), Xq13.1 (RP11-177A4) were purchased as BAC clones from Children's Hospital Oakland Research Institute (CHORI BacPac) FISH verified clone repository. Oligonucleotide probes for 1q21.2 (BCL9) and 1q23.3 were purchased from Agilent (SureFISH). BACS were prepared utilizing PureLink HiPure Plasmid Filter Maxiprep kit (Life Technologies) using the recommended modified wash buffer. Probes were nick translated (Abbot Molecular Kit) in the presence of fluorescently labeled dTTP (Enzo Life Science). Images of multiple planes of fields of nuclei were acquired on an Olympus IX81 Spinning Disk Microscope and analyzed using Slidebook 5.0 software. We used a conservative scoring metric for copy gain. Any foci that were touching were scored as a single foci to prevent increased numbers due to normally replicated foci. For RPE cells, copy gain was scored as any cell with 3 or more distinct foci. For 293T cells, copy gain was scored for any cell with 5 or more distinct foci. For RPE cells each experiment includes at least one replicate from the two different polyclonal stable cell preparations. At least 100 cells for each replicate were scored for all experiments except analysis of single cell clones.
# Cells were plated onto culture dishes and allowed to adhere for 20-24 hrs in normoxia (5% CO2, 21% O2, and 74% N2). For hypoxic treatment, cells were maintained in a HERA Cell 150™ incubator (Thermo Scientific) flushed with 5% CO2, 1% O2 or 4% O2, and balanced with N2 for the duration of the experiment. Incubator calibrations were carried out by Bianchi Associates Calibrations/Verifications.
# To release, cells were washed twice with culture medium pre-conditioned in normoxia or hypoxia, and supplied with fresh pre-conditioned media. For JIB-04 treatment, normoxic cells were pre-treated with 62.5 nM JIB-04 (Xcessbio) for 24 hrs, then treated again with JIB-04 and either transferred to 1% O2 or maintained in normoxia for an additional 24 hrs. Succinate was administered at a final concentration of 2 mM and cells were either maintained in normoxia for 72 hrs or maintained in normoxia for 48 hrs prior to being transferred to 1% O2 for 24 hrs.
# FISH was performed as described in (Black et al., 2013; Manning et al., 2010). Probes for 1q12h, 1q telomere, chromosome 8 centromere (alpha satellite), and X centromere (alpha satellite) were purchased from Rainbow Scientific. Probes for Xq13.1 (RP11-177A4), Zebrafish BCL9 (CH73-15J19) and Zebrafish IGBP1 (CH73-223D24) were purchased as BAC clones from Children's Hospital Oakland Research Institute (CHORI BacPac) clone repository. Probes for 1q21.2 (BCL9) and 1q23.3 were purchased from Agilent (SureFISH).
# FISH was performed as described in (Black et al., 2013; Manning et al., 2010). Probes for 1q12h, 1q telomere, chromosome 8 centromere (alpha satellite), and X centromere (alpha satellite) were purchased from Rainbow Scientific. Probes for Xq13.1 (RP11-177A4), Zebrafish BCL9 (CH73-15J19) and Zebrafish IGBP1 (CH73-223D24) were purchased as BAC clones from Children's Hospital Oakland Research Institute (CHORI BacPac) clone repository. Probes for 1q21.2 (BCL9) and 1q23.3 were purchased from Agilent (SureFISH). BACS were prepared utilizing PureLink HiPure™ Plasmid Filter Maxiprep kit (Life Technologies) using the recommended modified wash buffer. Probes were nick translated (Abbot Molecular Kit) in the presence of fluorescently labeled dTTP (Enzo Life Science). Images of multiple planes of fields of nuclei were acquired on an Olympus IX81 T Spinning Disk Microscope and analyzed using Slidebook™ 5.0 software. A conservative scoring metric was used for copy gain. Any foci that were touching were scored as a single copy to prevent increased numbers due to normally replicated foci.
# [2] = test system: HEK 293T cells; test: Monitored cell proliferation assay (xCELLigence growth curves, doubling time); assay type: cell-based, human
# Description: Seventy two hours post transfection 1×10^4 HEK 293T cells were seeded per well of a 96 well plate, and then treated after 24h. Cell proliferation was monitored with an xCELLigence system (Roche) (Vistejnova et al., 2009).
# [3] = test system: KDM4A; test: KDM4A protein levels by western blot; assay type: cell-based, human; details: 293T cells, fractionated in presence of NEM
# Description: Western blot analyses were performed according to (Black et al., 2010).
# Western blots were performed as in (Black et al., 2010). Briefly, adherent cells were either scraped directly into PBS, or washed with PBS, trypsinized and collected by centrifuging at 2,000 RPM for 5 minutes. For preparation of whole-cell lysates, cell pellets were washed once in ice-cold PBS and resuspended in RIPA lysis buffer [50 mM Tris pH 7.4, 150 mM NaCl, 0.25% Sodium Deoxycholate, 1% NP40, 1 mM EDTA, 10% Glycerol] supplemented with complete protease inhibitor and PhosSTOP™ phosphatase inhibitor cocktails (Roche). Cells were lysed on ice for 15 minutes and immediately frozen at −80° C. for 10 min. Lysates were subsequently sonicated at 70% amplitude for 15 minutes in a QSonica Q800R™ and cleared of cell debris by centrifuging at 12,000 RPM for 15 minutes, before being analyzed by western blotting. For HIF1α expression, adherent cells were washed twice with ice-cold PBS and scraped directly in warmed 1× Laemmli buffer. Samples were sonicated at 70% amplitude for 15 minutes and boiled immediately prior to western blotting.
# [4] = test system: H3K36me3; test: H3K36 demethylase activity of KDM4A variants in transfected cells (immunofluorescence); assay type: cell-based; parameters: key: + indicates active; − indicates inactive; +/− indicates partial acitivty; details: KDM4A mutations
# [5] = test system: H3K9me3; test: H3K9 demethylase activity of KDM4 variants in transfected cells; assay type: cell-based; parameters: key: + indicates active; − indicates inactive; +/− indicates partial acitivty; details: KDM4A mutations
molecule,measurement,setting,value
"HP1γ: H3K9me3 binding protein, overexpressed by transfection",hypoxia-dependent copy gain of 1q12h,[1],able to abrogate hypoxic induction of site-specific copy gain
same,hypoxia-induced 1q12h copy number gains,[1],antagonized
same,KDM4A-dependent 1q12h copy gain upon co-expression,[1],significantly reduced the number of KDM4A overexpressing cells with altered copy number of 1q12h
C[C@@H]1C[C@@H]([C@H](O)CC2CC(=O)NC(=O)C2)C(=O)[C@@H](C)C1 [Cycloheximide],"cell growth vs DMSO, KDM4A shRNA cells","[2]; HEK293T KDM4A shRNA, 30 nM",slow growth
same,"cell growth vs DMSO, control vector cells","[2]; HEK293T control vector, 30 nM",do not slow growth
CCCS(=O)(=O)Nc1ccc(F)c(C(=O)c2c[nH]c3ncc(Cl)cc23)c1F [PLX-4720],"drug sensitivity of KDM4A shRNA cells vs control vector (growth curves, doubling time)","[2]; HEK293T, PLX-4720",more sensitive
CCN1C(=O)C=CC1=O [NEM],hypoxia-induced changes in KDM4A levels and/or localization,[3]; 1% O2 6h,reduced
same,KDM4A chromatin association,[3],alters the chromatin association
"O=C1NC(=NCc2cccs2)S/C1=C\c1ccc2ncccc2c1 [R03306, reference compound]",1q12h copy number in KDM4A overexpressing cells upon arrest,"[1]; stable GFP-KDM4A RPE cells, arrested 20 hours",failed to display increased copy number of 1q12h
2A-S28N: KDM4A mutation (protein) MASESETLNPSARIMTFYPTMEEFRNFNRYIAYIESQGAHRAGLAKVVPPKEWKPRASYDDIDDLVIPAPIQQLVTGQSGLFTQYNIQKKAMTVREFRKIANSDKYCTPRYSEFEELERKYWKNLTFNPPIYGADVNGTLYEKHVDEWNIGRLRTILDLVEKESGITIEGVNTPYLYFGMWKTSFAWHTEDMDLYSINYLHFGEPKSWYSVPPEHGKRLERLAKGFFPGSAQSCEAFLRHKMTLISPLMLKKYGIPFDKVTQEAGEFMITFPYGYHAGFNHGFNCAESTNFATRRWIEYGKQAVLCSCRKDMVKISMDVFVRKFQPERYKLWKAGKDNTVIDHTLPTPEAAEFLKESELPPRAGNEEECPEEDMEGVEDGEEGDLKTSLAKHRIGTKRHRVCLEIPQEVSQSELFPKEDLSSEQYEMTECPAALAPVRPTHSSVRQVEDGLTFPDYSDSTEVKFEELKNVKLEEEDEEEEQAAAALDLSVNPASVGGRLVFSGSKKKSSSSLGSGSSRDSISSDSETSEPLSCRAQGQTGVLTVHSYAKGDGRVTVGEPCTRKKGSAARSFSERELAEVADEYMFSLEENKKSKGRRQPLSKLPRHHPLVLQECVSDDETSEQLTPEEEAEETEAWAKPLSQLWQNRPPNFEAEKEFNETMAQQAPHCAVCMIFQTYHQVEFGGFNQNCGNASDLAPQKQRTKPLIPEMCFTSTGCSTDINLSTPYLEEDGTSILVSCKKCSVRVHASCYGVPPAKASEDWMCSRCSANALEEDCCLCSLRGGALQRANDDRWVHVSCAVAILEARFVNIAERSPVDVSKIPLPRFKLKCIFCKKRRKRTAGCCVQCSHGRCPTAFHVSCAQAAGVMMQPDDWPFVVFITCFRHKIPNLERAKGALQSITAGQKVISKHKNGRFYQCEVVRLTTETFYEVNFDDGSFSDNLYPEDIVSQDCLQFGPPAEGEVVQVRWTDGQVYGAKFVASHPIQMYQVEFEDGSQLVVKRDDVYTLDEELPKRVKSRLSVASDMRFNEIFTEKEVKQEKKRQRVINSRYREDYIEPALYRAIME,H3k36 Demethylase Activity,[4],+
same,H3k9 Demethylase Activity,[5],+
"Suv39H1: H3K9me3 methyltransferase, overexpressed by transfection (protein, UniProt O43463 1-412, looked up, Halo tag, H3K9me3 methyltransferase, overexpressed by transfection) Histone-lysine …: MAENLKGCSVCCKSSWNQLQDLCRLAKLSCPALGISKRNLYDFEVEYLCDYKKIREQEYYLVKWRGYPDSESTWEPRQNLKCVRILKQFHKDLERELLRRHHRSKTPRHLDPSLANYLVQKAKQRRALRRWEQELNAKRSHLGRITVENEVDLDGPPRAFVYINEYRVGEGITLNQVAVGCECQDCLWAPTGGCCPGASLHKFAYNDQGQVRLRAGLPIYECNSRCRCGYDCPNRVVQKGIRYDLCIFRTDDGRGWGVRTLEKIRKNSFVMEYVGEIITSEEAERRGQIYDRQGATYLFDLDYVEDVYTVDAAYYGNISHFVNHSCDPNLQVYNVFIDNLDERLPRIAFFATRTIRAGEELTFDYNMQVDPVDMESTRMDSNFGLAGLPGSPKKRVRIECKCGTESCRKYLF",hypoxia-dependent copy gain of 1q12h,[1],able to abrogate hypoxic induction of site-specific copy gain
same,hypoxia-induced 1q12h copy number gains,[1],antagonized
same,KDM4A-dependent 1q12h copy gain upon co-expression,[1],sufficient to abrogate KDM4A-dependent 1q12h copy gain
